Read-outs that look alike come from different tables or passages of the source. *1 amine or outer side, *2 acyl side, *3 side chain or, on linkers, in order; H or OH if unused. Where a SMILES comes first, the peptide text is derived from it. Bridges are numbered along the chain shown (N, C = ends). Roman numbers before positions name the chains, in order. [ ]: non-standard residue; d: D form. Actinocin(9to1) = Cc1c2oc3c(C)ccc(C(=O)[*:1])c3nc-2c(C(=O)[*:2])c(N)c1=O; NMeV = CN[C@H](C(=O)O)C(C)C; Sar = CNCC(=O)O
Columns and labels:
[1] = tested on: RSV A2 strain; settings: cited from earlier work
[2] = molecular target: RSV F protein (Human respiratory syncytial virus, UniProt P12568); settings: resistance sites in the RSV F protein; cited from earlier work
[3] = tested on: BEAS-2B cells; settings: highest concentration 10 μM, tox = less than 50% cell viability after 44 hours at ≤10 μM
[4] = tested on: recRSV A2-L19FD489E-fireSMASh; assay: microbe, parasite or virus in culture; format: cell-based, Respiratory Syncytial Virus; settings: 384-well, four replicate screens, mean ± SD, BEAS-2B co-infection; for inhibition at 5 µM: human respiratory syncytial virus, read-out: % Inhibition (anti-RSV)
[5] = tested on: recIAV WSN-NanoLuc; assay: microbe, parasite or virus in culture; format: cell-based, influenza virus IAV/WSN/33 (H1N1); settings: for inhibition at 5 µM: unidentified influenza virus, WSN, BEAS-2B, read-out: % Inhibition (anti-IAV)
[6] = tested on: recRSV A2-L19F-renilla; assay: microbe, parasite or virus in culture; format: cell-based; settings: BEAS-2B; for EC50: read-out: EC50 RSV A2-L19F-renilla
[7] = tested on: recIAV WSN-NanoLuc; settings: for SI [CC50/EC50] IAV: SIIAV
[8] = in vitro; settings: human
[9] = tested on: recIAV WSN-NanoLuc; assay: microbe, parasite or virus in culture; settings: Influenza A virus, BEAS-2B, read-out: EC50 IAV WSN-nanoLuc
[10] = tested on: recRSV A2-L19FD489E-fireSMASh; assay: microbe, parasite or virus in culture; settings: human respiratory syncytial virus, BEAS-2B, read-out: EC50 RSV A2-L19FD489E-fireSMASh
[11] = tested on: recRSV A2-L19FD489E-fireSMASh; settings: for SI [CC50/EC50] RSV: SIRSV
[12] = human respiratory syncytial virus, 95% confidence interval in parentheses, inactive = less than 50% reduction of mean reporter signal
[13] = 95% confidence interval in parentheses, inactive = less than 50% reduction of mean reporter signal
[14] = BEAS-2B, 95% confidence interval in parentheses, inactive = less than 50% reduction of mean reporter signal

RSV F protein, sequence (P12568 137-574 limits assumed): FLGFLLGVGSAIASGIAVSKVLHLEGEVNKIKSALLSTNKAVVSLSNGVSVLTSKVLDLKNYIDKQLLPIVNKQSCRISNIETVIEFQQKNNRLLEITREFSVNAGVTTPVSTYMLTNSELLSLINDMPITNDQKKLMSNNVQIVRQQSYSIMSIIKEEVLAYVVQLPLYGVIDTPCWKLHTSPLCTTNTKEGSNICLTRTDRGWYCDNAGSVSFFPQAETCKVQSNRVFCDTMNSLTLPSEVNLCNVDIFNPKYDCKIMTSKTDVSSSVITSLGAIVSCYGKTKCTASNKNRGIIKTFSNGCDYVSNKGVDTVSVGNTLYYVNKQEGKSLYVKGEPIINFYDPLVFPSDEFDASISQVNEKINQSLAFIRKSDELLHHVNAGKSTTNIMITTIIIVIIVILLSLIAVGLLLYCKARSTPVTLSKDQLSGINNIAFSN
RSV F protein, sequence (P12568 26-109 partner limits assumed): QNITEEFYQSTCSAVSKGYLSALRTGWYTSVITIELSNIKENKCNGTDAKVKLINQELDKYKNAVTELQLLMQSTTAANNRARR

O=c1n(Cc2nc3ccccc3n2CCCCO)c2cnccc2n1C1CC1 [BMS-433771]
EC50 [1]: 10 nM | reported resistance sites [2]: FF140I FV144A FD392G FK394R FD489Y

CC[C@H]1CN2CCc3cc(OC)c(OC)cc3[C@@H]2C[C@@H]1C[C@H]1NCCc2cc(OC)c(OC)cc21 [Emetine]
CC50 (PrestoBlue cell viability) [3]: tox^d

CCN(CC)CCNC(=O)c1c(C)[nH]c(/C=C2\C(=O)Nc3ccc(F)cc32)c1C [Sunitinib]
CC50 (PrestoBlue cell viability) [3]: tox^d

CC(C)[C@]12O[C@H]1[C@@H]1O[C@]13[C@]1(O[C@H]1C[C@H]1C4=C(CC[C@@]13C)C(=O)OC4)[C@@H]2O [Triptolide]
inhibition at 5 µM [4]: 1.5 ± 21% | inhibition at 5 µM [5]: 103 ± 1.2% | EC50 [6, 12]: 600 nM | SI (CC50/EC50) value at dose-response testing ([7]; virus not given): below two | CC50 [8]: 0.3 µM | EC50 [9]: 150 nM | EC50 [10]: 400 nM

Cc1ccc(CCCO)c(NCc2ccc3nc(NCCCN4CCOCC4)n(Cc4nc(C)ccc4O)c3c2)c1 [TMC353121]
EC50 [1]: 0.13 nM | reported resistance sites [2]: FK394R FS398L FD486N

CC(=O)[C@]1(O)Cc2c(O)c3c(c(O)c2[C@@H](O[C@H]2C[C@H](N)[C@H](O)[C@H](C)O2)C1)C(=O)c1ccccc1C3=O [Idarubicin]
inhibition at 5 µM [4]: 95 ± 1.3% | inhibition at 5 µM [5]: 97 ± 1% | CC50 (PrestoBlue cell viability) [3]: tox^d

Cc1nc2ccc(CN(C)c3ccc(C(=O)N[C@@H](CCC(=O)O)C(=O)O)s3)cc2c(=O)[nH]1 [Raltitrexed]
inhibition at 5 µM [4]: 91 ± 1% | inhibition at 5 µM [5]: 60 ± 6.5%

COC(=O)C[C@](O)(CCCC(C)(C)O)C(=O)O[C@@H]1C(OC)=C[C@]23CCCN2CCc2cc4c(cc2[C@H]13)OCO4 [Homoharringtonine]
inhibition at 5 µM [4]: 98 ± 0.5% | inhibition at 5 µM [5]: 90 ± 2.6%

CC(=O)N[C@H]1[C@H]([C@H](O)[C@H](O)CO)OC(C(=O)O)=C[C@@H]1N=C(N)N [Zanamivir]
EC50 RSV A2-L19F-renilla [6, 13]: Inactive | SI [CC50/EC50] IAV [7]: SI^IAV >500 | selectivity for IAV reporter ([7]; dose-response counterscreen): selectively inhibited the IAV reporter | EC50 RSV A2-L19FD489E-fireSMASh [11, 14]: Inactive | CC50 [8]: > 10 µM | EC50 [9]: 20 nM

Stattic
EC50 [6, 13]: 15100 nM | SI [CC50/EC50] IAV [7]: SIIAV 3 | EC50 ([7]; read-out: EC50 IAV WSN-nanoLuc, BEAS-2B, 95% confidence interval in parentheses, inactive = less than 50% reduction of mean reporter signal): 3.3 µM | EC50 ([11]; read-out: EC50 RSV A2-L19FD489E-fireSMASh, BEAS-2B, 95% confidence interval in parentheses, inactive = less than 50% reduction of mean reporter signal): 5.9 µM

CCOC(=O)C1=C(C)NC(C)=C(C(=O)OC)C1c1cccc([N+](=O)[O-])c1 (centres unmarked) [Nitrendipine]
EC50 RSV A2-L19F-renilla [6, 13]: inactive^e | EC50 IAV WSN-nanoLuc [7, 14]: inactive^e | EC50 RSV A2-L19FD489E-fireSMASh [11, 14]: inactive^e | CC50 [8]: > 10 µM

CC(=O)OC[C@H]1O[C@@H]([S-])[C@H](OC(C)=O)[C@@H](OC(C)=O)[C@@H]1OC(C)=O.CCP(CC)CC.[Au+] [Auranofin]
CC50 (PrestoBlue cell viability) [3]: tox^d

Nc1nc2c(c(=O)[nH]1)C[C@@H](CCc1ccc(C(=O)N[C@@H](CCC(=O)O)C(=O)O)cc1)CN2 [Lometrexol]
CC50 (PrestoBlue cell viability) [3]: tox^d

CC1=C(/C=C/C(C)=C/C=C/C(C)=C/C(=O)Nc2ccc(O)cc2)C(C)(C)CCC1 [Fenretinide]
EC50 [6, 12]: 4800 nM | EC50 IAV WSN-nanoLuc [7, 14]: inactive^e | effect on IAV reporter strain ([7]; highest concentration tested): unaffected | SI [CC50/EC50] RSV [11]: SIRSV >2.8 | selectivity for RSV reporter ([11]; dose-response counterscreen): selectively inhibited RSV | CC50 [8]: > 10 µM | EC50 [10]: 3600 nM

CCN(CC)CCOc1ccc(Nc2ncc3cc(-c4c(Cl)cccc4Cl)c(=O)n(C)c3n2)cc1 [PD-166285]
CC50 (PrestoBlue cell viability) [3]: tox^d

COc1cc2nc(N3CCCN(C)CC3)nc(NC3CCN(Cc4ccccc4)CC3)c2cc1OC [BIX 01294]
EC50 RSV A2-L19F-renilla [6, 13]: inactive^e | EC50 IAV WSN-nanoLuc [7, 14]: inactive^e | EC50 RSV A2-L19FD489E-fireSMASh [11, 14]: inactive^e | CC50 [8]: > 10 µM

Nc1ccn([C@@H]2O[C@H](CO)[C@@H](O)C2(F)F)c(=O)n1 [Gemcitabine]
EC50 [6, 12]: 50 nM | SI [CC50/EC50] IAV [7]: SIIAV >100 | SI [CC50/EC50] RSV [11]: SIRSV >111 | CC50 [8]: > 10 µM | EC50 [9]: 100 nM | EC50 [10]: 90 nM

CNc1ccc2oc(C[C@H]3O[C@@]4(CC[C@H]3C)O[C@H]([C@H](C)C(=O)c3ccc[nH]3)[C@H](C)C[C@H]4C)nc2c1C(=O)O [Calcimycin]
CC50 (PrestoBlue cell viability) [3]: tox^d

c1cnc2c(c1)ccc1cccnc12 [Phenanthroline]
CC50 [8]: 2.4 µM

NC(=O)c1ncn([C@@H]2O[C@H](CO)[C@@H](O)[C@H]2O)n1 [Ribavirin]
EC50 [6, 12]: 2900 nM | SI [CC50/EC50] IAV [7]: SIIAV >2.2 | SI [CC50/EC50] RSV [11]: SIRSV >3.9 | CC50 [8]: > 10 µM | EC50 [9]: 4500 nM | EC50 [10]: 2600 nM

ET-18-OCH3
EC50 RSV A2-L19F-renilla [6, 13]: inactive^e | EC50 IAV WSN-nanoLuc [7, 14]: inactive^e | EC50 RSV A2-L19FD489E-fireSMASh [11, 14]: inactive^e | CC50 ([3]; read-out: CC50 (PrestoBlue cell viability)): > 10 µM

Nc1nc(N)c2nc(CNc3ccc(C(=O)N[C@@H](CCC(=O)O)C(=O)O)cc3)cnc2n1 [Aminopterin]
EC50 ([6]; human respiratory syncytial virus): 50 nM | SI [CC50/EC50] IAV [7]: SIIAV 111 | SI [CC50/EC50] RSV [11]: SIRSV 143 | CC50 [8]: 10 µM | EC50 [9]: 90 nM | EC50 [10]: 70 nM

COc1cc([C@@H]2c3cc4c(cc3[C@@H](O[C@@H]3O[C@@H]5CO[C@@H](C)O[C@H]5[C@H](O)[C@H]3O)[C@H]3COC(=O)[C@H]23)OCO4)cc(OC)c1O [Etoposide]
inhibition at 5 µM [4]: 80 ± 6.6% | inhibition at 5 µM [5]: 56 ± 5.6%

Cc1c(-c2ccc(-c3ccccc3F)cc2)nc2ccc(F)cc2c1C(=O)O [Brequinar]
EC50 [6, 12]: 1800 nM | SI [CC50/EC50] IAV [7]: SIIAV >3.8 | SI [CC50/EC50] RSV [11]: SIRSV >6.3 | CC50 [8]: > 10 µM | EC50 [9]: 2600 nM | EC50 [10]: 1600 nM

Cc1c2oc3c(C)ccc(C(=O)N[C@@H]4C(=O)N[C@H](C(C)C)C(=O)N5CCC[C@H]5C(=O)N(C)CC(=O)N(C)[C@@H](C(C)C)C(=O)O[C@@H]4C)c3nc-2c(C(=O)N[C@@H]2C(=O)N[C@H](C(C)C)C(=O)N3CCC[C@H]3C(=O)N(C)CC(=O)N(C)[C@@H](C(C)C)C(=O)O[C@@H]2C)c(N)c1=O [Actinomycin D] (I: T[dV]P[Sar][NMeV] / II: T[dV]P[Sar][NMeV]; ester I:1-I:C, II:1-II:C; linker I:N-II:N via Actinocin(9to1))
% Inhibition (anti-RSV) ([4]; 5 μM): 52 ± 9.6% | % Inhibition (anti-IAV) ([5]; 5 μM): 104 ± 1.5%

Cn1nnc2c(C(N)=O)ncn2c1=O [Temozolomide]
inhibition at 5 µM [4]: 96 ± 1.3% | inhibition at 5 µM [5]: 55 ± 3.2%

CN(CCOc1ccc(CC2SC(=O)NC2=O)cc1)c1ccccn1 (centres unmarked) [Rosiglitazone]
inhibition at 5 µM [4]: 85 ± 5.8% | inhibition at 5 µM [5]: 35 ± 5%

CN(Cc1cnc2nc(N)nc(N)c2n1)c1ccc(C(=O)N[C@@H](CCC(=O)O)C(=O)O)cc1 [Methotrexate]
inhibition at 5 µM [4]: 99 ± 0.5% | inhibition at 5 µM [5]: 100 ± 0.6%

COc1cccc2c1C(=O)c1c(O)c3c(c(O)c1C2=O)C[C@@](O)(C(=O)CO)C[C@@H]3O[C@H]1C[C@H](N)[C@@H](O)[C@H](C)O1 [Epirubicin]
inhibition at 5 µM [4]: 62 ± 6.3% | inhibition at 5 µM [5]: 75 ± 3.1%

Nc1nc(N)c2nc(-c3ccccc3)c(N)nc2n1 [Triamterene]
EC50 RSV A2-L19F-renilla [6, 13]: inactive^e | EC50 IAV WSN-nanoLuc [7, 14]: inactive^e | EC50 RSV A2-L19FD489E-fireSMASh [11, 14]: inactive^e | CC50 [8]: > 10 µM

C[n+]1cc2c3c(ccc2c2ccc4cc5c(cc4c21)OCO5)OCO3 [Sanguinarine]
CC50 (PrestoBlue cell viability) [3]: tox^d

CC[C@]1(O)C[C@H]2CN(CCc3c([nH]c4ccccc34)[C@@](C(=O)OC)(c3cc4c(cc3OC)N(C=O)[C@H]3[C@@](O)(C(=O)OC)[C@H](OC(C)=O)[C@]5(CC)C=CCN6CC[C@]43[C@@H]65)C2)C1 [Vincristine]
inhibition at 5 µM [4]: 79 ± 6.9% | inhibition at 5 µM [5]: 50 ± 2.9%

Cn1c(=O)c(-c2c(Cl)cccc2Cl)cc2cnc(Nc3ccc(N4CCOCC4)cc3)nc21 [PD173952]
CC50 (PrestoBlue cell viability) [3]: tox^d
